Target: T1, EGFR kinase (Homo sapiens, UniProt P00533)
T1 construct: purchased cloud clone SEA757Hu
Assay: EGFR-TK cell-free inhibitory assay
Assay type: biochemical
Conditions: not given
Description: A cell-free assay was used to investigate the mechanism of inhibition of EGFR kinase according to the reported method (see Supporting Information).
A cell-free assay was used to investigate the mechanism of inhibition of EGFR kinase according to the reported method. […] 200 µM (EGFR) was used. […] Mean values of two independent replicates for each experiment were used for the interpolation.

T1 sequence (P00533 25-1210): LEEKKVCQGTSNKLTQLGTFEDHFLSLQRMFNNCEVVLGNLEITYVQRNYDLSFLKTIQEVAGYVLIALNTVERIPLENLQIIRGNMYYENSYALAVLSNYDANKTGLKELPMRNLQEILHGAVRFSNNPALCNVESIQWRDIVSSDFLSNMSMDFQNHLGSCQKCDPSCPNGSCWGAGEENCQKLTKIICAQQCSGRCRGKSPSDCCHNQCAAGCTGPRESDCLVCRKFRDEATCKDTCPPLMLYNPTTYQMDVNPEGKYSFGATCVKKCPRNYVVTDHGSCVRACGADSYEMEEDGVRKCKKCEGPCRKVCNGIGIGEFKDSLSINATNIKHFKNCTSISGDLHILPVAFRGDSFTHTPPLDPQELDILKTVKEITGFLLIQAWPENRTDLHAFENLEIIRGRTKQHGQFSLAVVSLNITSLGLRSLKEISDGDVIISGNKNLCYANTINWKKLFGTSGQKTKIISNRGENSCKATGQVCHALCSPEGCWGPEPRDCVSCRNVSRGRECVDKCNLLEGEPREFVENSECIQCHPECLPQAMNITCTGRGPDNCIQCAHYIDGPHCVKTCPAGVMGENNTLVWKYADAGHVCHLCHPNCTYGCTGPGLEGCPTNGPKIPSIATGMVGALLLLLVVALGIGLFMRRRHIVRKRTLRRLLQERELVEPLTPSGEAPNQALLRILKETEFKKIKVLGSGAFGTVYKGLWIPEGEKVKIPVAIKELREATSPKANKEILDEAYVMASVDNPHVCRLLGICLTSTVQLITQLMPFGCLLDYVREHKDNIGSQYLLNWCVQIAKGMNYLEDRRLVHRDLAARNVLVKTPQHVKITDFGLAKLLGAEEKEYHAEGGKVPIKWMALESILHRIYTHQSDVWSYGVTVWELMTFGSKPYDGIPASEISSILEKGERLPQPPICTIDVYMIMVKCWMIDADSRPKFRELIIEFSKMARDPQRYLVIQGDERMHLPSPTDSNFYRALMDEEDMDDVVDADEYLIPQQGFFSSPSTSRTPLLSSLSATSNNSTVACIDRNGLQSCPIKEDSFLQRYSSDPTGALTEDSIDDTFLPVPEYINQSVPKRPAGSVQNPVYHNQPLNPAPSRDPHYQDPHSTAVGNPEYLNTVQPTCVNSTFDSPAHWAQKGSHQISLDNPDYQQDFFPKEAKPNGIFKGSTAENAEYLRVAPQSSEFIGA

SMILES | IC50
N#Cc1[se]c2nc(N)c(N=Nc3ccccc3)c(N)c2c1N [Compound 12a, 3,4,6-Triamino-5-[phenyldiazenyl]selenopheno[2,3-b]pyridine-2-carbonitrile] | 0.301 ± 0.012 µM
Cc1ccc(N=Nc2c(N)nc3[se]c(C#N)c(N)c3c2N)cc1 [Compound 12b, 3,4,6-Triamino-5-(4-methylphenyl)diazenylselenopheno[2,3-b]pyridine-2-carbonitrile] | 0.123 ± 0.004 µM

System: osteosarcoma (MG-63) cell line
Assay: SRB cytotoxicity assay, MG-63 cells
Assay type: cell-based, human
Conditions: Homo sapiens, MG-63, 72 h, SRB assay, 72 h incubation, mean ± SD; read-out: IC50 values (µM) MG-63
Description: (§1) Fig. 3 The effect of synthesized compounds against the highly metastatic cancer cell lines PC-3 and MG-63 cell lines after 72 h incubation and viability was assessed by the SRB assay. Values represent the mean ± SD of three independent experiments
(§2) The SRB assay was used to evaluate the effect of the synthesized selenium containing heterocyclic compounds on cancer cells according to the previous literatures (see Supporting Information).
(§3) The human prostate cancer cells (PC3) and human osteosarcoma cells (MG-63) were obtained from Nawah Scientific Inc. (Mokatam, Cairo, Egypt) and cultured in DMEM (Dulbecco’s modified eagle’s medium), Gibco, USA, supplemented with fetal bovine serum (FBS) at a concentration of 10% and 100 U/mL of penicillin and streptomycin (PS). The Cells were incubated at 37 °C in a humidified environment that contained 5% CO2.
(§4) Cells were seeded in 96-well plates as aliquots of 100 μL cell suspension and incubated in a complete media for 24 h. Afterward, cells were treated with synthesized compounds at diverse concentrations ranging from 0.01 μM to 100 μM for 72 h. Then, cells were fixed at 4 °C for one hour with 150 μL of 10% trichloroacetic acid (TCA). After washing the cells five times with distilled water, 70 μL of sulforhodamine (SRB) solution (0.4% w/v) was added and incubated for 10 min at room temperature in a dark place. Cells were washed with 1% acetic acid three times and allowed to air-dry. Then, 150 μL of Tris pH 10.5 (10 mM) was added, and the absorbance was measured at 540 nm using a BMG LABTECH®- FLUOstar Omega microplate reader (Ortenberg, Germany). Half maximal inhibitory concentrations (IC50) values were calculated for each experiment using GraphPad Prism 6 software. IC50 values were reported as mean ± SD [53].

SMILES | IC50
COc1cccc2c1C(=O)c1c(O)c3c(c(O)c1C2=O)C[C@@](O)(C(=O)CO)C[C@@H]3O[C@H]1C[C@H](N)[C@H](O)[C@H](C)O1 [DOX, doxorubicin, reference compound] | 9.4 ± 1.1 µM
CS(=O)(=O)CCNCc1ccc(-c2ccc3ncnc(Nc4ccc(OCc5cccc(F)c5)c(Cl)c4)c3c2)o1 [Lapatinib, lapatinib, reference compound] | 0.47 ± 0.03 µM

Same assay, conditions: Homo sapiens, MG-63, 72 h, read-out: IC50 values (µM) MG-63, SRB assay, 72 h incubation, mean ± SD

SMILES | IC50
N#Cc1[se]c2nc(N)cc(N)c2c1N [Compound 2, 3,4,6-triamino-2-cyanoselenopheno[2,3-b]pyridine] | > 100 µM
CN(C)c1cc(N)c(C#N)c([Se][Se]c2nc(N(C)C)cc(N)c2C#N)n1 [Compound 4] | 240 ± 3.2 µM
N#Cc1[se]c2nc(N)c(Br)c(N)c2c1N [Compound 7, 3,4,6-triamino-5-bromoselenopheno[2,3-b]pyridine-2-carbonitrile] | > 100 µM
Nc1nc2[se]c(-c3nc4ccccc4s3)c(N)c2c(N)c1Br [Compound 9, 2-(benzo[d]thiazol-2-yl)-5-bromo-selenopheno[2,3-b]-pyridine-3,4,6-triamine] | 62.8 ± 3.45 µM
CC(=O)Nc1cc2c3c(c(C#N)[se]c3n1)N=C(C)N2 [Compound 11, N-(2-cyano-4-methyl-5H-1-seleno-3,5,8-triazaacenaphthylen-7-yl)acetamide] | 62.2 ± 1.51 µM
N#Cc1[se]c2nc(N)c(N=Nc3ccccc3)c(N)c2c1N [Compound 12a, 3,4,6-Triamino-5-[phenyldiazenyl]selenopheno[2,3-b]pyridine-2-carbonitrile] | < 4 µM
Cc1ccc(N=Nc2c(N)nc3[se]c(C#N)c(N)c3c2N)cc1 [Compound 12b, 3,4,6-Triamino-5-(4-methylphenyl)diazenylselenopheno[2,3-b]pyridine-2-carbonitrile] | < 4 µM
COc1ccc(N=Nc2c(N)nc3[se]c(C#N)c(N)c3c2N)cc1 [Compound 12c, 3,4,6-Triamino-5-[(4-methoxyphenyl)diazenyl]selenopheno[2,3-b]pyridine-2-carbonitrile] | < 4 µM
N#Cc1[se]c2nc(N)c(N=Nc3ccc(Cl)cc3)c(N)c2c1N [Compound 12d, 3,4,6-Triamino-5-[(4-chlorophenyl)diazenyl]selenopheno[2,3-b]pyridine-2-carbonitrile] | < 4 µM

Same assay, conditions: SRB assay, tested until 100 µM

SMILES | inhibition of cell proliferation / cytotoxic effect (in words), MG-63
N#Cc1[se]c2nc(N)cc(N)c2c1N [Compound 2, 3,4,6-triamino-2-cyanoselenopheno[2,3-b]pyridine] | without significant inhibition of cell proliferation
CN(C)c1cc(N)c(C#N)c([Se][Se]c2nc(N(C)C)cc(N)c2C#N)n1 [Compound 4] | without significant inhibition of cell proliferation
N#Cc1[se]c2nc(N)c(Br)c(N)c2c1N [Compound 7, 3,4,6-triamino-5-bromoselenopheno[2,3-b]pyridine-2-carbonitrile] | without significant inhibition of cell proliferation
Nc1nc2[se]c(-c3nc4ccccc4s3)c(N)c2c(N)c1Br [Compound 9, 2-(benzo[d]thiazol-2-yl)-5-bromo-selenopheno[2,3-b]-pyridine-3,4,6-triamine] | low cytotoxic effects
CC(=O)Nc1cc2c3c(c(C#N)[se]c3n1)N=C(C)N2 [Compound 11, N-(2-cyano-4-methyl-5H-1-seleno-3,5,8-triazaacenaphthylen-7-yl)acetamide] | low cytotoxic effects

Same assay, conditions: read-out: IC50 values (µM) MG-63; SRB assay, 72 h incubation, mean ± SD

SMILES | IC50
N#Cc1[se]c2nc(N)c(N=Nc3ccccc3)c(N)c2c1N [Compound 12a, 3,4,6-Triamino-5-[phenyldiazenyl]selenopheno[2,3-b]pyridine-2-carbonitrile] | 3.45 ± 0.2 µM
Cc1ccc(N=Nc2c(N)nc3[se]c(C#N)c(N)c3c2N)cc1 [Compound 12b, 3,4,6-Triamino-5-(4-methylphenyl)diazenylselenopheno[2,3-b]pyridine-2-carbonitrile] | 3.37 ± 0.22 µM
COc1ccc(N=Nc2c(N)nc3[se]c(C#N)c(N)c3c2N)cc1 [Compound 12c, 3,4,6-Triamino-5-[(4-methoxyphenyl)diazenyl]selenopheno[2,3-b]pyridine-2-carbonitrile] | 3.37 ± 0.12 µM
N#Cc1[se]c2nc(N)c(N=Nc3ccc(Cl)cc3)c(N)c2c1N [Compound 12d, 3,4,6-Triamino-5-[(4-chlorophenyl)diazenyl]selenopheno[2,3-b]pyridine-2-carbonitrile] | 3.93 ± 0.23 µM

System: prostate cancer (PC-3) cell line
Assay: SRB cytotoxicity assay, PC-3 cells
Assay type: cell-based, human
Conditions: Homo sapiens, PC-3, 72 h, SRB assay, 72 h incubation, mean ± SD; read-out: IC50 values (µM) PC-3
Description: as §1, §2, §3, §4

SMILES | IC50
COc1cccc2c1C(=O)c1c(O)c3c(c(O)c1C2=O)C[C@@](O)(C(=O)CO)C[C@@H]3O[C@H]1C[C@H](N)[C@H](O)[C@H](C)O1 [DOX, doxorubicin, reference compound] | 7.6 ± 0.45 µM
CS(=O)(=O)CCNCc1ccc(-c2ccc3ncnc(Nc4ccc(OCc5cccc(F)c5)c(Cl)c4)c3c2)o1 [Lapatinib, lapatinib, reference compound] | 0.13 ± 0.04 µM

Same assay, conditions: Homo sapiens, PC-3, 72 h, read-out: IC50 values (µM) PC-3, SRB assay, 72 h incubation, mean ± SD

SMILES | IC50
N#Cc1[se]c2nc(N)cc(N)c2c1N [Compound 2, 3,4,6-triamino-2-cyanoselenopheno[2,3-b]pyridine] | > 100 µM
CN(C)c1cc(N)c(C#N)c([Se][Se]c2nc(N(C)C)cc(N)c2C#N)n1 [Compound 4] | 233 ± 2.6 µM
N#Cc1[se]c2nc(N)c(Br)c(N)c2c1N [Compound 7, 3,4,6-triamino-5-bromoselenopheno[2,3-b]pyridine-2-carbonitrile] | > 100 µM
Nc1nc2[se]c(-c3nc4ccccc4s3)c(N)c2c(N)c1Br [Compound 9, 2-(benzo[d]thiazol-2-yl)-5-bromo-selenopheno[2,3-b]-pyridine-3,4,6-triamine] | 51.1 ± 3 µM
CC(=O)Nc1cc2c3c(c(C#N)[se]c3n1)N=C(C)N2 [Compound 11, N-(2-cyano-4-methyl-5H-1-seleno-3,5,8-triazaacenaphthylen-7-yl)acetamide] | 34.7 ± 0.77 µM
N#Cc1[se]c2nc(N)c(N=Nc3ccccc3)c(N)c2c1N [Compound 12a, 3,4,6-Triamino-5-[phenyldiazenyl]selenopheno[2,3-b]pyridine-2-carbonitrile] | < 4 µM
Cc1ccc(N=Nc2c(N)nc3[se]c(C#N)c(N)c3c2N)cc1 [Compound 12b, 3,4,6-Triamino-5-(4-methylphenyl)diazenylselenopheno[2,3-b]pyridine-2-carbonitrile] | < 4 µM
COc1ccc(N=Nc2c(N)nc3[se]c(C#N)c(N)c3c2N)cc1 [Compound 12c, 3,4,6-Triamino-5-[(4-methoxyphenyl)diazenyl]selenopheno[2,3-b]pyridine-2-carbonitrile] | < 4 µM
N#Cc1[se]c2nc(N)c(N=Nc3ccc(Cl)cc3)c(N)c2c1N [Compound 12d, 3,4,6-Triamino-5-[(4-chlorophenyl)diazenyl]selenopheno[2,3-b]pyridine-2-carbonitrile] | < 4 µM

Same assay, conditions: SRB assay, tested until 100 µM

SMILES | inhibition of cell proliferation / cytotoxic effect (in words), PC-3
N#Cc1[se]c2nc(N)cc(N)c2c1N [Compound 2, 3,4,6-triamino-2-cyanoselenopheno[2,3-b]pyridine] | without significant inhibition of cell proliferation
CN(C)c1cc(N)c(C#N)c([Se][Se]c2nc(N(C)C)cc(N)c2C#N)n1 [Compound 4] | without significant inhibition of cell proliferation
N#Cc1[se]c2nc(N)c(Br)c(N)c2c1N [Compound 7, 3,4,6-triamino-5-bromoselenopheno[2,3-b]pyridine-2-carbonitrile] | without significant inhibition of cell proliferation
Nc1nc2[se]c(-c3nc4ccccc4s3)c(N)c2c(N)c1Br [Compound 9, 2-(benzo[d]thiazol-2-yl)-5-bromo-selenopheno[2,3-b]-pyridine-3,4,6-triamine] | low cytotoxic effects
CC(=O)Nc1cc2c3c(c(C#N)[se]c3n1)N=C(C)N2 [Compound 11, N-(2-cyano-4-methyl-5H-1-seleno-3,5,8-triazaacenaphthylen-7-yl)acetamide] | low cytotoxic effects

Same assay, conditions: read-out: IC50 values (µM) PC-3; SRB assay, 72 h incubation, mean ± SD

SMILES | IC50
N#Cc1[se]c2nc(N)c(N=Nc3ccccc3)c(N)c2c1N [Compound 12a, 3,4,6-Triamino-5-[phenyldiazenyl]selenopheno[2,3-b]pyridine-2-carbonitrile] | 2.69 ± 0.03 µM
Cc1ccc(N=Nc2c(N)nc3[se]c(C#N)c(N)c3c2N)cc1 [Compound 12b, 3,4,6-Triamino-5-(4-methylphenyl)diazenylselenopheno[2,3-b]pyridine-2-carbonitrile] | 2.59 ± 0.02 µM
COc1ccc(N=Nc2c(N)nc3[se]c(C#N)c(N)c3c2N)cc1 [Compound 12c, 3,4,6-Triamino-5-[(4-methoxyphenyl)diazenyl]selenopheno[2,3-b]pyridine-2-carbonitrile] | 2.75 ± 0.09 µM
N#Cc1[se]c2nc(N)c(N=Nc3ccc(Cl)cc3)c(N)c2c1N [Compound 12d, 3,4,6-Triamino-5-[(4-chlorophenyl)diazenyl]selenopheno[2,3-b]pyridine-2-carbonitrile] | 3.08 ± 0.01 µM

System: not given
Assay: not given
Conditions: not given

melting point | SMILES
148 to 150 °C | C[Se]c1nc(N)cc(N)c1C#N
176 to 178 °C | N#CC[Se]c1nc(N)c(Br)c(N)c1C#N
198 to 200 °C | N#Cc1c([Se][Se]c2nc(N)c(Sc3ccccc3)c(N)c2C#N)nc(N)c(Sc2ccccc2)c1N
236 to 238 °C | N#Cc1c([Se][Se]c2nc(N)c(Sc3ccc(Cl)cc3)c(N)c2C#N)nc(N)c(Sc2ccc(Cl)cc2)c1N

SMILES | melting point
N#Cc1[se]c2nc(N)cc(N)c2c1N [Compound 2, 3,4,6-triamino-2-cyanoselenopheno[2,3-b]pyridine] | 258 to 260 °C
CN(C)c1cc(N)c(C#N)c([Se][Se]c2nc(N(C)C)cc(N)c2C#N)n1 [Compound 4] | 172 to 174 °C
N#Cc1[se]c2nc(N)c(Br)c(N)c2c1N [Compound 7, 3,4,6-triamino-5-bromoselenopheno[2,3-b]pyridine-2-carbonitrile] | 268 to 270 °C

Source: article PMC11785687, “An efficient methodological approach for synthesis of selenopyridines: generation, reactions, anticancer activity, EGFR inhibitory activity and molecular docking studies” (Molecular Diversity, 2024)
